Results as given in patent publication US6525079B2, “Anti-parasitic heterocycle compounds, agents, formulations, and methods of use thereof” (Pfizer Inc., priority 1998, dated 2003).

How the values were obtained:
[1] = tested on: Adult flies (Stomoxys calcitrans); test: Test for insecticidal activity: topical application to adult flies, mortality after 24 hours; assay type: in vivo; settings: 1 μl acetone solution applied to thorax of fly; mortality assessed 24 hours after dosing
Description: Test for Insecticidal Activity Adult flies (Stomoxys calcitrans) are collected and anaesthetized using CO2- 1 μl of an acetone solution containing the test substance is applied directly to the thorax of the fly. The flies are then placed carefully into a 50 ml tube covered with damp gauze to recover from the CO2. Negative controls have 1 μl of acetone dispensed onto them. Mortality is assessed 24 hours after dosing. The table below illustrates the in vivo activity of a selection of the substances of the invention against such flies. Dosages required to produce 100% mortality are expressed in μg/fly.

[2] = tested on: Boophilus microplus larvae; test: Test for acaricidal activity: treated filter paper envelope, larval mortality; assay type: in vivo; settings: Rhipicephalus microplus, larvae exposed 48 hours at 25° C.; for mortality at 0.5 µg/cm2: dosage 0.5 μg/cm^2 on filter paper
Description: Test for Acaricidal Activity
A dose of 10 μg/cm^2 is created by evenly pipetting 0.5 ml of a 1 mg/ml solution of the test compound in a suitable solvent such as acetone or ethanol onto a Whatman No. 1 (Trade Mark) filter paper cut to a size of 8×6.25 cm. When dry, the paper is folded in half, sealed on two sides using a crimping device and placed in a Kilner jar containing a cotton wool pad dampened with water. The jar is then sealed and placed at 25° C. for 24 hours. Next, approximately 50 Boophilus microplus larvae are introduced into the treated paper envelope which is then crimped along the third side to effect a complete seal. The paper envelope is returned to the Kilner jar, which is sealed and placed at 25° C. for a further 48 hours. The papers are then removed and mortality assessed. Negative controls are provided by treating an appropriately cut filter paper with 0.5 ml of solvent only and following the same procedure. Activity at other doses is obtained by varying the concentration of the test solution. The table below illustrates the in vivo activity of a selection of the compounds of the invention against Boophilus microplus larvae. Dosages are expressed in μg/cm^2.

SMILES	Dosage required to produce 100% mortality [1] [μg/fly]	mortality at 0.5 µg/cm2 [2] [%]	mortality at 1 µg/cm2 ([2]; dosage 1 μg/cm^2 on filter paper) [%]
FC(F)(F)c1cc(Cl)c(-n2cc(C3CC3(Br)Br)c3ccccc32)c(Cl)c1 (centres unmarked) [Example 4, 3-(2,2-Dibromocyclopropyl)-1-(2,6-dichloro-4-trifluoromethylphenyl)indole]	0.05		
N#Cc1cn(-c2c(Cl)cc(C(F)(F)F)cc2Cl)cc1C1CC1(Br)Br (centres unmarked) [Example 3, 3-Cyano-4-(2,2-dibromocyclopropyl)-1-(2,6-dichloro-4-trifluoromethylphenyl)pyrrole]	0.005	100	
FC(F)(F)c1cc(Cl)c(-n2cnc(C3CC3(Br)Br)n2)c(Cl)c1 (centres unmarked) [Example 6, 3-(2,2-Dibromocyclopropyl)-1-(2,6-dichloro-4-trifluoromethylphenyl)-1,2,4-triazole]	0.01		
FC(F)(F)c1cc(Cl)c(-n2cc(C3CC3(Br)Br)nn2)c(Cl)c1 (centres unmarked) [Example 1, 4-(2,2-Dibromocyclopropyl)-1-(2,6-dichloro-4-trifluoromethylphenyl)-1,2,3-triazole]	0.005	90	
FC(F)(F)c1cc(Cl)c(-n2cc(C3CC3(Cl)Cl)nn2)c(Cl)c1 (centres unmarked) [Example 2, 4-(2,2-Dichlorocyclopropyl)-1-(2,6-dichloro-4-trifluoromethylphenyl)-1,2,3-triazole]	0.01		100
